For one test, the target named is T1, full-length PARP-1 (Homo sapiens, UniProt P09874).
T1 construct: Full-length PARP-1 WT (residues 1–1014) was cloned in pET28 vector; made in house; host or cells: E. coli
Description: Colorimetric assay of full-length PARP-1 DNA-dependent activity. The class given is biochemical. Particulars: for IC50: 20 nM PARP-1, 40 nM DNA (18-bp duplex), 50 μM NAD+ (99:1 NAD+:bio-NAD+). The method, then:
The colorimetric assay was performed as described, [28] using 20 nM of protein and 40 nM DNA (18-bp duplex). A mixture of NAD^+ and biotinylated NAD^+ (bio-NAD^+) was used at a 99:1 ratio and a final concentration of 50 µM. Reactions were allowed to proceed for 5 min before quenching. Three independent experiments were performed.

Test [1] addresses T2, PARP-1 CAT ΔHD (Homo sapiens, UniProt P09874).
T2 construct: a pET28 construct coding for PARP-1 residues 661-1011; made in house; host or cells: E. coli
Briefly: DSF, PARP-1 CAT ΔHD. It is filed as binding. Conditions: for TM: CAT ΔHD 5 μM, in °C (unit assumed). The method, then:
DSF experiments were performed as described, [13] using 5 µM protein, 2.5 µM DNA when indicated and various concentrations of compound (BAD, carba-NAD^+, benzamide, and ADP-ribose) as indicated in Fig. 1 and Fig. 3. Experiments were performed on a Roche LightCycler 480 RT-PCR. Reactions including DNA were performed with a 26- or 28-base pair (bp) unphosphorylated oligonucleotide for PARP-1, a 28-bp 5´-phosphorylated (5´P) oligonucleotide for PARP-2, and a 47-bp oligonucleotide including a central 5´P nick for PARP-3^13 in the following buffer: 25 mM Hepes pH 8.0, 150 mM NaCl, 1 mM EDTA, and 0.1 mM TCEP. Reactions with PARP-3 were conducted at lower ionic strength to allow binding to DNA as described (25 mM Hepes pH 8.0, 50 mM NaCl, 1 mM EDTA and 0.1 mM TCEP)[13]. ΔTM values were calculated by subtracting the TM determined for the protein in the absence of compound from the TM determined in the presence of compound. Experiments were performed in triplicate and a Boltzmann sigmoid was fit to the data to determine the TM values (KaleidaGraph).

The next test has as its target T3, PARP-1 CAT WT (Homo sapiens, UniProt P09874).
T3 construct: The PARP-1 CAT WT (residues 661–1014) was cloned in pET28 vector; made in house; host or cells: E. coli
Description: Isothermal titration calorimetry (ITC), PARP-1 CAT WT. It is filed as binding. The method, then:
(§1) ITC experiments were performed using a MicroCal iTC200 calorimeter (GE Healthcare). BAD or benzamide at 525 μM was titrated into PARP-1 protein (50 μM for CAT WT and CAT ΔHD, 40 μM for full-length PARP-1 WT and mutants) or PARP-1 protein with DNA (20–40 μM) at 25°C. Prior to the experiment, proteins and DNA were dialyzed in 25 mM Hepes pH 8.0, 150 mM NaCl, 1 mM EDTA, and 0.1 mM TCEP. BAD and benzamide were diluted in the dialysis buffer. PARP-1/DNA complexes were assembled and incubated at RT for 30 min prior to performing the experiment. Experiments were typically designed as follows: a first injection of 0.2 μL was followed by 16 injections of 2.5 μL with a spacing of 100 s between injections. Excess heat upon each injection was integrated using an automatically adjusted base line and derived values corrected by heat of dilution. Data analysis and curve fitting were conducted using Origin 7 software. The ITC experiment for each sample was performed either two (PARP-1 WT with benzamide, PARP-1 E763/D766/D770A with benzamide, PARP-1 D766/D770A with BAD) or three times (the remaining eight samples). Table 2 lists the average KD value and stoichiometry (n) for the replicates, and the reported errors are the calculated standard deviations (representing the range of values for experiments repeated two times). We anticipate that the sub-stoichiometric n values for CAT constructs results from either the active fraction being < 100%, or the protein concentration determination being not entirely accurate. The analysis of full-length PARP-1 yielded n values around the expected value of 1.

For test [2], the target named is T2, PARP-1 CAT ΔHD. Description: ITC, PARP-1 CAT ΔHD. It is filed as binding. Particulars: for n (stoichiometry): CAT ΔHD; for Kd: CAT ΔHD 50 μM, compound 525 μM titrated, 25°C. The method, then:
as §1

Test [3] addresses T4, full-length PARP-1 D766/D770A (Homo sapiens, UniProt P09874, D766A/D770A).
T4 construct: Full-length PARP-1 WT (residues 1–1014) was cloned in pET28 vector and site-directed mutagenesis was performed; made in house; host or cells: E. coli
Briefly: ITC, full-length PARP-1 D766/D770A. It is filed as binding. Particulars: for n (stoichiometry): FL D766/D770A; for KD / Kd: FL D766/D770A 40 μM, without DNA, compound 525 μM titrated, 25°C. The method, then: as §1

Test [4] addresses T5, full-length PARP-1 E763/D766/D770A (Homo sapiens, UniProt P09874, D766A/D770A/E763A).
T5 construct: Full-length PARP-1 WT (residues 1–1014) was cloned in pET28 vector and site-directed mutagenesis was performed; made in house; host or cells: E. coli
Briefly: ITC, full-length PARP-1 E763/D766/D770A. Particulars: for n (stoichiometry): FL E763/D766/D770A; for KD / Kd: FL E763/D766/D770A 40 μM, without DNA, compound 525 μM titrated, 25°C. The class given is binding. The procedure: as §1

Test [5] deals with T6, PARP-1 WT (Homo sapiens, UniProt P09874).
T6 construct: Full-length PARP-1 WT (residues 1–1014) was cloned in pET28 vector; made in house; host or cells: E. coli
Briefly: Fluorescence polarization DNA competition assay, PARP-1 WT. It is filed as binding. Conditions: 40 nM PARP-1 WT, 20 nM labeled DNA, compound 500 μM, competitor 100 nM. The procedure: (§2) For the DNA competition assay, 40 nM PARP-1 WT, or PARP-1 ΔHD, was incubated with 20 nM of dumbbell DNA with a central nick carrying an internal fluorescent FAM group (5′-GCT GAG C/FAMT/T CTGGTGAAGCTCAGCTCGCGGCAGCTGGTGCTGCCGCGA-3′) for 30 min at RT in 12 mM Hepes pH 8.0, 60 mM KCl, 8 mM MgCl2, 4% glycerol, 5.7 mM beta-mercaptoethanol, 0.05 mg per ml bovine serm albumin with or without BAD or benzamide (500 μM). A competitor unlabeled DNA of the same sequence was added at 100 nM and FP was measured over time on a VictorV plate reader (Perkin Elmer). For the DNA affinity measurement assay, increasing concentrations of PARP-1 WT were incubated for 30 min at RT with 5 nM of dumbbell DNA probe carrying a nick (described above) in the absence or presence of BAD or benzamide (100 μM) in the following buffer: 12 mM Hepes pH 8.0, 250 mM NaCl, 4% glycerol, 5.7 mM beta-mercaptoethanol, 0.05 mg per ml bovine serum albumin.

The target of test [6] is T6, PARP-1 WT. Briefly: Fluorescence polarization DNA affinity measurement assay. The class given is binding. Conditions: presence versus absence of compound. The procedure:
as §2

Where [7] appears, read: Figure 1e, compound 25 µM, TM without compound 41.26.
The mark [8] stands for this setting: Figure 1e, compound 150 µM, TM without compound 41.26.
The mark [9] stands for this setting: Figure 1e, compound 750 µM, TM without compound 41.26.
The mark [10] stands for this setting: Figure 1e, compound 1500 µM, TM without compound 41.26.
Setting [11] is: CAT WT 50 μM, compound 525 μM titrated, 25°C.

“And” between values parts separate entries of the source, which are not always exact repeats. Equal entries are not always repeated. “Also recorded” adds a separate entry of the source.

The values that follow come from article PMC5829251, “NAD^+ analog reveals PARP-1 substrate-blocking mechanism and allosteric communication from catalytic center to DNA-binding domains” (Nature Communications, 2018).

T4 sequence (P09874 whole entry D766A/D770A, the tested form may be a part): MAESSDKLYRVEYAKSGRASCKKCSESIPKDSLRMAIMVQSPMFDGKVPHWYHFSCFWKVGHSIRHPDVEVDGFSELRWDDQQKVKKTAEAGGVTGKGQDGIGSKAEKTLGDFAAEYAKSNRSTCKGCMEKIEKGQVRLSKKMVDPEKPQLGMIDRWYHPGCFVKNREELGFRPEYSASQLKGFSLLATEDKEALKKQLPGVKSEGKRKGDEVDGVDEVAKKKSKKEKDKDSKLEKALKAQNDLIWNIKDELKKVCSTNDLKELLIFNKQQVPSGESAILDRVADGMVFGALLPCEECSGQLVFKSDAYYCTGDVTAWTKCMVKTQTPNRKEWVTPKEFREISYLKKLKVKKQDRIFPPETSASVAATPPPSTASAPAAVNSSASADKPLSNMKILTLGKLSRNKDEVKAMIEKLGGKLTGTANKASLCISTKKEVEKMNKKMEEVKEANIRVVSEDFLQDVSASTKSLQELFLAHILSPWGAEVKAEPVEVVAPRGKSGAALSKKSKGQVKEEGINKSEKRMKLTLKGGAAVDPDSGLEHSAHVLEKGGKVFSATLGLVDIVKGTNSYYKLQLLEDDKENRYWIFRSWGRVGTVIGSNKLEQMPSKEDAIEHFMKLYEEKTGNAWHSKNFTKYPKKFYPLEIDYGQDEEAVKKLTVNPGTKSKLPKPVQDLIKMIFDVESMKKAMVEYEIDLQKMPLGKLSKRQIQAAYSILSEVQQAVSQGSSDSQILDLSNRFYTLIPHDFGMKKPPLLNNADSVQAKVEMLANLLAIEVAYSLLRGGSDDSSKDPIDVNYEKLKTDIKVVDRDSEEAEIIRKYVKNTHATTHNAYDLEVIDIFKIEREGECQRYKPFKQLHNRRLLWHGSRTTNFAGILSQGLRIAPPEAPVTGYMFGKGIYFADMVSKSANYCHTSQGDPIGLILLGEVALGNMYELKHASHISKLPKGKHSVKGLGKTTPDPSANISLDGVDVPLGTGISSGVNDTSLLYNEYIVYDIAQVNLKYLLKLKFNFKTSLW
T6 sequence (P09874 whole entry, the tested form may be a part): as the sequence (P09874 whole entry D766A/D770A, the tested form may be a part) above, with A766D, A770D counted along it
T1 sequence (P09874 whole entry, the tested form may be a part): as the sequence (P09874 whole entry D766A/D770A, the tested form may be a part) above, with A766D, A770D counted along it
T2 sequence (P09874 with tags, fused parts or gaps): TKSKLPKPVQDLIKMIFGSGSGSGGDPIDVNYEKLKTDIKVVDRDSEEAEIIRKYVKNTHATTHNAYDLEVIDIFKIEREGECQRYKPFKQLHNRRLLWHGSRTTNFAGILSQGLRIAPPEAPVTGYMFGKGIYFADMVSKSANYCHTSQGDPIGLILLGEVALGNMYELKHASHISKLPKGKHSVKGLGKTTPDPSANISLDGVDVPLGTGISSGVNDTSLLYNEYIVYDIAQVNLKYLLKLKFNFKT
T5 sequence (P09874 whole entry E763A/D766A/D770A, the tested form may be a part): as the sequence (P09874 whole entry D766A/D770A, the tested form may be a part) above, with E763A counted along it
T3 sequence (P09874 661-1014): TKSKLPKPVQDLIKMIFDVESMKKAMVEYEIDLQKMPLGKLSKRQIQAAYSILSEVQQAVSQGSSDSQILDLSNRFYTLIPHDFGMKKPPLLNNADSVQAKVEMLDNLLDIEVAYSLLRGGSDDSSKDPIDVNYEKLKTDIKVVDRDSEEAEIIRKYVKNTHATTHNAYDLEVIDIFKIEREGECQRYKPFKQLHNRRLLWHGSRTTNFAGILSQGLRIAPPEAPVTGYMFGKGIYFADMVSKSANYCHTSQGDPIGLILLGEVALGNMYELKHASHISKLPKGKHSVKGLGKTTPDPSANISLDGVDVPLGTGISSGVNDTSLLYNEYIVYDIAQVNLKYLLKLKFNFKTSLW

For `NC(=O)c1cccc(C2OC(COP(=O)(O)OP(=O)(O)OCC3OC(n4cnc5c(N)ncnc54)C(O)C3O)C(O)C2O)c1` (stereo not shown) [BAD, benzamide adenine dinucleotide], the concentration for half-maximal inhibition (IC50) against full-length PARP-1 is 8.6 µM and 8.63 µM. Besides, the TM is 45.52 at PARP-1 CAT ΔHD [1] (setting [7]); 48.60 on PARP-1 CAT ΔHD [1] (setting [8]); 49.27 at PARP-1 CAT ΔHD [1] (setting [9]); 51.95 on PARP-1 CAT ΔHD [1] (setting [10]); 47.02 at PARP-1 CAT ΔHD [1] (Figure 1d, compound 50 µM, TM without compound 41.76); 49.58 at PARP-1 CAT ΔHD [1] (Figure 1d, compound 250 µM, TM without compound 41.76). Besides, the TM on PARP-1 CAT ΔHD [1] (Figure 1d, compound 1250 µM, TM without compound 41.76) is 51.91. Besides, the “TM increase (ΔTM) of CAT ΔHD” value at PARP-1 CAT ΔHD [1] (at the highest concentration, 5 μM protein) turned out to be 10 °C. The KD entry at PARP-1 CAT WT (setting [11]) is reported as “no measureable heat exchange; also recorded: No binding”; in test [3], “showed evidence of binding”; in test [4], “showed evidence of binding”. Further, the “n (stoichiometry)” value is on record as 0.63 + /− 0.09 on PARP-1 CAT ΔHD [2], 0.96 + /− 0.10 in test [3] and 1.00 + /− 0.13 in test [4]. The Kd on PARP-1 CAT ΔHD [2] was 5.87 µM; in test [3], 2.49 µM; in test [4] it was 0.38 µM. The “calculated KD for BAD lower than observed for all other proteins” value in test [4] (E763/D766/D770A versus all other proteins) is given as “about 10 fold”. Besides, at PARP-1 WT [5], the “exchange of PARP-1 from labeled to unlabeled competitor DNA” value is listed as “greatly prevented the exchange”. Also, the “increase in PARP-1 affinity for a DNA single-strand break” value on PARP-1 WT [6] came out at 10 fold.
For `NC(=O)c1ccccc1` [benzamide], the half-maximal inhibitory concentration (IC50) at full-length PARP-1 was 4.6 µM and 4.62 µM. On full-length PARP-1 (20 nM PARP-1, 40 nM DNA, 50 μM NAD+), the “inhibition of DNA damage-dependent activity of full-length PARP-1” value is “inhibits to a similar extent as the entire BAD molecule”. In addition, the “change of TM of CAT ΔHD (evidence of binding)” value at PARP-1 CAT ΔHD [1] (5 μM protein, various amounts of compound) is listed as “increased the TM”. Also, the TM at PARP-1 CAT ΔHD [1] (setting [7]) worked out at 43.73; at PARP-1 CAT ΔHD [1] (setting [8]), 46.20; at PARP-1 CAT ΔHD [1] (setting [9]), 46.99; on PARP-1 CAT ΔHD [1] (setting [10]) it was 49.98. The “n (stoichiometry)” value is 0.49 + /− 0.02 on PARP-1 CAT WT (CAT WT), 0.39 + /− 0.01 at PARP-1 CAT ΔHD [2], 0.81 + /− 0.14 in test [3] and 0.89 + /− 0.07 in test [4]. Also, the dissociation constant (Kd) at PARP-1 CAT WT (setting [11]) turned out to be 3.79 µM; at PARP-1 CAT ΔHD [2], 3.21 µM; in test [3], 2.81 µM; in test [4], 2.99 µM. The KD result in test [3] and in test [4] was “also bound to benzamide similarly” each time. On PARP-1 WT [5], the “exchange of PARP-1 from labeled to unlabeled competitor DNA” value is “did not affect PARP-1 release”. For the same molecule, the “increase in PARP-1 affinity for a DNA single-strand break” value at PARP-1 WT [6] was “no effect”.
